PubChem BioAssay (NCI)
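Assay format: 96-well plates, 48-hour exposure. TGI is the concentration that stops growth completely.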

Tests used:
Assay in all cases: NCI-60 cell line screen, 48 h
SK-MEL-5 melanoma = tested on: SK-MEL-5 melanoma
PC-3 prostate = tested on: PC-3 prostate
SR leukemia = tested on: SR leukemia
HOP-92 NSCLC = tested on: HOP-92 NSCLC
RPMI-8226 leukemia = tested on: RPMI-8226 leukemia
SF-295 CNS = tested on: SF-295 CNS
M14 melanoma = tested on: M14 melanoma
UACC-62 melanoma = tested on: UACC-62 melanoma
MDA-MB-231 breast = tested on: MDA-MB-231 breast
ACHN renal = tested on: ACHN renal
EKVX NSCLC = tested on: EKVX NSCLC
COLO 205 colon = tested on: COLO 205 colon
MCF7 breast = tested on: MCF7 breast
A549 NSCLC = tested on: A549 NSCLC
IGROV1 ovarian = tested on: IGROV1 ovarian
SK-OV-3 ovarian = tested on: SK-OV-3 ovarian
HOP-62 NSCLC = tested on: HOP-62 NSCLC
HCT-116 colon = tested on: HCT-116 colon
NCI/ADR-RES ovarian = tested on: NCI/ADR-RES ovarian
UACC-257 melanoma = tested on: UACC-257 melanoma
A498 renal = tested on: A498 renal
OVCAR-8 ovarian = tested on: OVCAR-8 ovarian
MDA-N = tested on: MDA-N
U251 CNS = tested on: U251 CNS
T-47D breast = tested on: T-47D breast
HT29 colon = tested on: HT29 colon
NCI-H522 lung = tested on: NCI-H522 lung
SN12C renal = tested on: SN12C renal
786-0 renal = tested on: 786-0 renal
HCC-2998 colon = tested on: HCC-2998 colon
LOX IMVI melanoma = tested on: LOX IMVI melanoma
NCI-H226 lung = tested on: NCI-H226 lung
OVCAR-5 ovarian = tested on: OVCAR-5 ovarian
HCT-15 colon = tested on: HCT-15 colon
UO-31 renal = tested on: UO-31 renal
HL-60(TB) leukemia = tested on: HL-60(TB) leukemia
DU-145 prostate = tested on: DU-145 prostate
OVCAR-4 ovarian = tested on: OVCAR-4 ovarian
NCI-H460 lung = tested on: NCI-H460 lung
SW-620 colon = tested on: SW-620 colon
MOLT-4 leukemia = tested on: MOLT-4 leukemia
NCI-H23 lung = tested on: NCI-H23 lung
CCRF-CEM leukemia = tested on: CCRF-CEM leukemia
MALME-3M melanoma = tested on: MALME-3M melanoma
TK-10 renal = tested on: TK-10 renal
RXF 393 renal = tested on: RXF 393 renal
SK-MEL-2 melanoma = tested on: SK-MEL-2 melanoma
KM12 colon = tested on: KM12 colon
SF-268 CNS = tested on: SF-268 CNS
SK-MEL-28 melanoma = tested on: SK-MEL-28 melanoma
CAKI-1 renal = tested on: CAKI-1 renal
BT-549 breast = tested on: BT-549 breast
HS 578T breast = tested on: HS 578T breast
K-562 leukemia = tested on: K-562 leukemia
SNB-19 CNS = tested on: SNB-19 CNS
MDA-MB-435 = tested on: MDA-MB-435
SNB-75 CNS = tested on: SNB-75 CNS
OVCAR-3 ovarian = tested on: OVCAR-3 ovarian
SF-539 CNS = tested on: SF-539 CNS

Question: With `Cc1nnc(N)nc1/C=C\c1ccc(Cl)cc1Cl` as the compound, how does the TGI (SK-MEL-5 melanoma) read?
Answer: 81.5 µM

Question: What about the TGI (PC-3 prostate) of the same compound?
Answer: > 100 µM

Question: And the TGI (SR leukemia)?
Answer: > 100 µM

Question: What about the TGI (HOP-92 NSCLC) of the same compound?
Answer: > 100 µM

Question: What about the TGI (RPMI-8226 leukemia) of the same compound?
Answer: > 100 µM

Question: And the TGI (SF-295 CNS)?
Answer: 53.8 µM

Question: And the TGI (M14 melanoma)?
Answer: 85.3 µM

Question: What about the TGI (UACC-62 melanoma) of the same compound?
Answer: > 100 µM

Question: And the TGI (MDA-MB-231 breast)?
Answer: > 100 µM

Question: And the TGI (ACHN renal)?
Answer: > 100 µM

Question: And the TGI (EKVX NSCLC)?
Answer: > 100 µM

Question: What about the TGI (COLO 205 colon) of the same compound?
Answer: 55.8 µM

Question: What about the TGI (MCF7 breast) of the same compound?
Answer: > 100 µM

Question: What about the TGI (A549 NSCLC) of the same compound?
Answer: > 100 µM

Question: And the TGI (IGROV1 ovarian)?
Answer: 39.4 µM

Question: And the TGI (SK-OV-3 ovarian)?
Answer: > 100 µM

Question: And the TGI (HOP-62 NSCLC)?
Answer: 36.3 µM

Question: What about the TGI (HCT-116 colon) of the same compound?
Answer: 63.1 µM

Question: And the TGI (NCI/ADR-RES ovarian)?
Answer: > 100 µM

Question: And the TGI (UACC-257 melanoma)?
Answer: > 100 µM

Question: What about the TGI (A498 renal) of the same compound?
Answer: > 100 µM

Question: And the TGI (OVCAR-8 ovarian)?
Answer: > 100 µM

Question: And the TGI (MDA-N)?
Answer: > 100 µM

Question: What about the TGI (U251 CNS) of the same compound?
Answer: > 100 µM

Question: And the TGI (T-47D breast)?
Answer: > 100 µM

Question: And the TGI (HT29 colon)?
Answer: 41.7 µM

Question: And the TGI (NCI-H522 lung)?
Answer: 57.5 µM

Question: And the TGI (SN12C renal)?
Answer: > 100 µM

Question: What about the TGI (786-0 renal) of the same compound?
Answer: > 100 µM

Question: And the TGI (HCC-2998 colon)?
Answer: 42.8 µM

Question: What about the TGI (LOX IMVI melanoma) of the same compound?
Answer: > 100 µM

Question: And the TGI (NCI-H226 lung)?
Answer: 46.2 µM

Question: What about the TGI (OVCAR-5 ovarian) of the same compound?
Answer: > 100 µM

Question: What about the TGI (HCT-15 colon) of the same compound?
Answer: > 100 µM

Question: What about the TGI (UO-31 renal) of the same compound?
Answer: > 100 µM

Question: What about the TGI (HL-60(TB) leukemia) of the same compound?
Answer: 53 µM

Question: What about the TGI (DU-145 prostate) of the same compound?
Answer: > 100 µM

Question: And the TGI (OVCAR-4 ovarian)?
Answer: > 100 µM

Question: What about the TGI (NCI-H460 lung) of the same compound?
Answer: 42.8 µM

Question: What about the TGI (SW-620 colon) of the same compound?
Answer: 51.3 µM

Question: And the TGI (MOLT-4 leukemia)?
Answer: > 100 µM

Question: And the TGI (NCI-H23 lung)?
Answer: > 100 µM

Question: And the TGI (CCRF-CEM leukemia)?
Answer: 86.4 µM

Question: What about the TGI (MALME-3M melanoma) of the same compound?
Answer: 59.3 µM

Question: What about the TGI (TK-10 renal) of the same compound?
Answer: > 100 µM

Question: What about the TGI (RXF 393 renal) of the same compound?
Answer: > 100 µM

Question: What about the TGI (SK-MEL-2 melanoma) of the same compound?
Answer: 32.6 µM

Question: What about the TGI (KM12 colon) of the same compound?
Answer: 32.6 µM

Question: And the TGI (SF-268 CNS)?
Answer: > 100 µM

Question: And the TGI (SK-MEL-28 melanoma)?
Answer: > 100 µM

Question: What about the TGI (CAKI-1 renal) of the same compound?
Answer: > 100 µM

Question: And the TGI (BT-549 breast)?
Answer: > 100 µM

Question: And the TGI (HS 578T breast)?
Answer: 99.2 µM

Question: And the TGI (K-562 leukemia)?
Answer: > 100 µM

Question: What about the TGI (SNB-19 CNS) of the same compound?
Answer: > 100 µM

Question: What about the TGI (MDA-MB-435) of the same compound?
Answer: > 100 µM

Question: With `COC(=O)CNC(=O)C(Cc1ccccc1)NC(=O)c1ccc(-c2ccc(Cl)cc2Cl)o1` (centres undefined) as the compound, how does the TGI (SK-MEL-5 melanoma) read?
Answer: > 100 µM

Question: What about the TGI (SNB-75 CNS) of the same compound?
Answer: > 100 µM

Question: What about the TGI (PC-3 prostate) of the same compound?
Answer: > 100 µM

Question: And the TGI (SR leukemia)?
Answer: 36 µM

Question: What about the TGI (HOP-92 NSCLC) of the same compound?
Answer: 39.1 µM

Question: And the TGI (RPMI-8226 leukemia)?
Answer: 51.9 µM

Question: And the TGI (SF-295 CNS)?
Answer: 64.3 µM

Question: And the TGI (M14 melanoma)?
Answer: > 100 µM

Question: And the TGI (OVCAR-3 ovarian)?
Answer: 72.5 µM

Question: What about the TGI (UACC-62 melanoma) of the same compound?
Answer: 65.1 µM

Question: What about the TGI (MDA-MB-231 breast) of the same compound?
Answer: 52.4 µM

Question: And the TGI (ACHN renal)?
Answer: 66.5 µM

Question: What about the TGI (EKVX NSCLC) of the same compound?
Answer: 78.6 µM

Question: What about the TGI (COLO 205 colon) of the same compound?
Answer: 30.2 µM

Question: What about the TGI (MCF7 breast) of the same compound?
Answer: 62.1 µM

Question: And the TGI (A549 NSCLC)?
Answer: > 100 µM

Question: And the TGI (IGROV1 ovarian)?
Answer: > 100 µM

Question: And the TGI (SK-OV-3 ovarian)?
Answer: 84.2 µM

Question: And the TGI (SF-539 CNS)?
Answer: > 100 µM

Question: And the TGI (HOP-62 NSCLC)?
Answer: 78.8 µM

Question: And the TGI (HCT-116 colon)?
Answer: 43.2 µM

Question: And the TGI (NCI/ADR-RES ovarian)?
Answer: > 100 µM

Question: What about the TGI (UACC-257 melanoma) of the same compound?
Answer: 57.5 µM

Question: And the TGI (A498 renal)?
Answer: 38.8 µM

Question: And the TGI (OVCAR-8 ovarian)?
Answer: > 100 µM

Question: What about the TGI (MDA-N) of the same compound?
Answer: 86.8 µM

Question: What about the TGI (U251 CNS) of the same compound?
Answer: > 100 µM

Question: What about the TGI (T-47D breast) of the same compound?
Answer: > 100 µM

Question: What about the TGI (HT29 colon) of the same compound?
Answer: 52.7 µM

Question: And the TGI (NCI-H522 lung)?
Answer: 43.3 µM

Question: And the TGI (SN12C renal)?
Answer: > 100 µM

Question: And the TGI (786-0 renal)?
Answer: 38.7 µM

Question: And the TGI (LOX IMVI melanoma)?
Answer: 69 µM

Question: What about the TGI (NCI-H226 lung) of the same compound?
Answer: > 100 µM

Question: And the TGI (OVCAR-5 ovarian)?
Answer: > 100 µM

Question: What about the TGI (HCT-15 colon) of the same compound?
Answer: 89.4 µM

Question: What about the TGI (UO-31 renal) of the same compound?
Answer: > 100 µM

Question: And the TGI (HL-60(TB) leukemia)?
Answer: 41.2 µM

Question: And the TGI (DU-145 prostate)?
Answer: > 100 µM

Question: And the TGI (OVCAR-4 ovarian)?
Answer: > 100 µM

Question: And the TGI (NCI-H460 lung)?
Answer: 40.3 µM

Question: What about the TGI (SW-620 colon) of the same compound?
Answer: > 100 µM

Question: What about the TGI (MOLT-4 leukemia) of the same compound?
Answer: 49.2 µM

Question: And the TGI (NCI-H23 lung)?
Answer: > 100 µM

Question: And the TGI (CCRF-CEM leukemia)?
Answer: 39.5 µM

Question: What about the TGI (MALME-3M melanoma) of the same compound?
Answer: 87.4 µM

Question: What about the TGI (TK-10 renal) of the same compound?
Answer: 75.2 µM

Question: And the TGI (RXF 393 renal)?
Answer: 73.5 µM

Question: What about the TGI (SK-MEL-2 melanoma) of the same compound?
Answer: 96.6 µM

Question: What about the TGI (KM12 colon) of the same compound?
Answer: 91.2 µM

Question: What about the TGI (SF-268 CNS) of the same compound?
Answer: 69.8 µM

Question: And the TGI (SK-MEL-28 melanoma)?
Answer: > 100 µM

Question: What about the TGI (CAKI-1 renal) of the same compound?
Answer: 77.6 µM

Question: What about the TGI (BT-549 breast) of the same compound?
Answer: > 100 µM

Question: And the TGI (HS 578T breast)?
Answer: 52.1 µM

Question: And the TGI (K-562 leukemia)?
Answer: > 100 µM

Question: And the TGI (SNB-19 CNS)?
Answer: > 100 µM

Question: And the TGI (MDA-MB-435)?
Answer: > 100 µM
